These results are taken from patent US4988686A, “Cephem compounds and anti-bacterial agent” (Meiji Seika Kabushiki Kaisha, priority 1988, dated 1991).

Experiment in all cases: agar-dilution method, minimum inhibitory concentration
Format in all cases: cell-based

The subject of assay [1] is Enterobacter cloacae GN7471. The text has this:
(§1) In order to illustrate the utility of the objective compound (I), anti-bacterial activities measured by the agar-dilution method for some of these compounds (I) are shown in table 1.

Assay [2] concerns Pseudomonas aeruginosa IMA-1007.
Excerpt: as §1

In assay [3] the test system is Pseudomonas cepacia M-0527. The note with it: Burkholderia cepacia, M0527.
Excerpt: as §1

For assay [4], the system named is Pseudomonas aeruginosa E-2.
Excerpt: as §1

Assay [5] relates to Bacillus subtilis ATCC 6633.
Excerpt: as §1

The test system of assay [6] is Staphylococcus aureus 209PJC-1.
Excerpt: as §1

A further assay deals with Escherichia coli No. 29.
Excerpt: as §1

Assay [7] concerns Pseudomonas aeruginosa M-0148.
Excerpt: as §1

The test system of assay [8] is Cytrobacter freundii GN346. The note with it: read-out: Minimum Inhibitory Concentration.
Excerpt: as §1

The test system of the next assay is Escherichia coli 255.
Excerpt: as §1

The next assay concerns Proteus vulgaris 76.
Excerpt: as §1

For assay [9], the system named is Serratia marcescens No. 1.
Excerpt: as §1

The subject of assay [10] is Klebsiella pneumoniae GN69.
Excerpt: as §1

[11] abbreviates: Enterobacter cloacae GN7471, agar-dilution method, read-out: Minimum Inhibitory Concentration.
[12] abbreviates: IMA1007, Pseudomonas aeruginosa IMA-1007, agar-dilution method, read-out: Minimum Inhibitory Concentration.
The mark [13] stands for this setting: E2, Pseudomonas aeruginosa E-2, agar-dilution method, read-out: Minimum Inhibitory Concentration.
Setting [14] is: ATCC6633, Bacillus subtilis ATCC 6633, agar-dilution method, read-out: Minimum Inhibitory Concentration.
[15] abbreviates: 209PJC1, Staphylococcus aureus 209PJC-1, agar-dilution method, read-out: Minimum Inhibitory Concentration.
The mark [16] stands for this setting: M0148, Pseudomonas aeruginosa M-0148, agar-dilution method, read-out: Minimum Inhibitory Concentration.
Setting [17] is: Cytrobacter freundii GN346, agar-dilution method.
[18] abbreviates: Proteus vulgaris 76, agar-dilution method, read-out: Minimum Inhibitory Concentration.
The mark [19] stands for this setting: Serratia marcescens No. 1, agar-dilution method, read-out: Minimum Inhibitory Concentration.
The mark [20] stands for this setting: Klebsiella pneumoniae GN69, agar-dilution method, read-out: Minimum Inhibitory Concentration.

Converted amounts (≈) assume the structure as drawn. Where two headings read alike, the source gives them in different places. A value given as a limit tells only on which side of the number the result lay.

Regarding `CC(C)(O/N=C(\C(=O)N[C@@H]1C(=O)N2C(C(=O)[O-])=C(C[n+]3ccccc3)CS[C@H]12)c1csc(N)n1)C(=O)O` [Ceftazidime, reference compound], the MIC in assay [1] (Enterobacter cloacae, GN7471, read-out: Minimum Inhibitory Concentration) was 3.13 µg/mL (≈ 5.73 µM); in [2] (Pseudomonas aeruginosa, IMA1007, read-out: Minimum Inhibitory Concentration), 0.78 µg/mL (≈ 1.43 µM); in assay [3] it was 0.39 µg/mL (≈ 0.714 µM); in [4] (Pseudomonas aeruginosa, E2, read-out: Minimum Inhibitory Concentration) it was 0.39 µg/mL (≈ 0.714 µM); in assay [5] (Bacillus subtilis, ATCC6633, read-out: Minimum Inhibitory Concentration), 3.13 µg/mL (≈ 5.73 µM); in assay [6] (Staphylococcus aureus, 209PJC1, read-out: Minimum Inhibitory Concentration), 3.13 µg/mL (≈ 5.73 µM). Also, the MIC in the assay on Escherichia coli No. 29 is 0.2 µg/mL (≈ 0.366 µM); in assay [7] (Pseudomonas aeruginosa, M0148, read-out: Minimum Inhibitory Concentration), 1.56 µg/mL (≈ 2.85 µM); in [8], 25 µg/mL (≈ 45.7 µM); in the assay with Escherichia coli 255, 25 µg/mL (≈ 45.7 µM); in the assay on Proteus vulgaris 76 (Proteus vulgaris, 76, read-out: Minimum Inhibitory Concentration), 0.05 µg/mL (≈ 0.0915 µM); in assay [9] (Serratia marcescens, NO.1, read-out: Minimum Inhibitory Concentration) it was ≤ 0.025 µg/mL. Moreover, in assay [10] (Klebsiella pneumoniae, GN69, read-out: Minimum Inhibitory Concentration), the MIC was 0.1 µg/mL (≈ 0.183 µM).
`CO/N=C(\C(=O)N[C@@H]1C(=O)N2C(C(=O)O)=C(/C=C/c3cc(=O)c(O)cn3O)CS[C@H]12)c1csc(N)n1` [Example 2, (6R, 7R)-7-[(Z)-2-(2-aminothiazol-4-yl)-2-methoxyiminoacetamido]-3-[2-(1,5-dihydroxy-4-pyridon-2-yl)vinyl]-ceph-3-em-4-carboxylic]: the MIC is 0.05 µg/mL (≈ 0.0935 µM) in [1] (setting [11]); 0.1 µg/mL (≈ 0.187 µM) in assay [2] (setting [12]); ≤ 0.025 µg/mL in assay [3]; 0.1 µg/mL (≈ 0.187 µM) in assay [4] (setting [13]); 6.25 µg/mL (≈ 11.7 µM) in assay [5] (setting [14]); 25 µg/mL (≈ 46.8 µM) in [6] (setting [15]). Further, the MIC is ≤ 0.025 µg/mL against Escherichia coli No. 29; 0.2 µg/mL (≈ 0.374 µM) in assay [7] (setting [16]); 0.1 µg/mL (≈ 0.187 µM) in assay [8] (setting [17]); ≤ 0.025 µg/mL against Escherichia coli 255; ≤ 0.025 µg/mL in the assay with Proteus vulgaris 76 (setting [18]); ≤ 0.025 µg/mL in assay [9] (setting [19]). In addition, the MIC in [10] (setting [20]) came out at 0.05 µg/mL (≈ 0.0935 µM).
In the case of `CC(C)(O/N=C(\C(=O)N[C@@H]1C(=O)N2C(C(=O)O)=C(/C=C/c3cc(=O)c(O)cn3O)CS[C@H]12)c1csc(N)n1)C(=O)O` [Example 5, (6R,7R)-7-[(Z)-2-(2-aminothiazol-4-yl)-2-(1-methyl-1carboxy)ethoxyiminoacetamido]-3-[2-(1,5-dihydroxy-4-pyridon-2-yl)vinyl]-ceph-3-em-4-carboxylic acid, trans-isomer], the MIC was 0.78 µg/mL (≈ 1.29 µM) in assay [1] (setting [11]); ≤ 0.025 µg/mL in assay [2] (setting [12]); ≤ 0.025 µg/mL in assay [3]; ≤ 0.025 µg/mL in assay [4] (setting [13]); 100 µg/mL (≈ 165 µM) in [5] (setting [14]); > 100 µg/mL in [6] (setting [15]). For the same compound, the MIC is 0.1 µg/mL (≈ 0.165 µM) in the assay on Escherichia coli No. 29; ≤ 0.025 µg/mL in [7] (setting [16]); 12.5 µg/mL (≈ 20.6 µM) in [8] (setting [17]); ≤ 0.025 µg/mL in the assay on Escherichia coli 255; ≤ 0.025 µg/mL in the assay on Proteus vulgaris 76 (setting [18]); 0.05 µg/mL (≈ 0.0824 µM) in assay [9] (setting [19]). Also, in [10] (setting [20]), the MIC is ≤ 0.025 µg/mL.
Consider `CO/N=C(\C(=O)N[C@@H]1C(=O)N2C(C(=O)O)=C(/C=C/c3cc(=O)c(O)cn3C)CS[C@H]12)c1csc(N)n1` [Example 7, (6R ,7R)-7 - [(Z )-2-(2-aminothiazol-4-yl)-2-methoxyiminoacetamido]-3-[2-(5-hydroxy-1-methyl-4-pyridon-2-yl)vinyl]-ceph-3-em-4-carboxylic acid, trans-isomer], for which the MIC in assay [1] (setting [11]) is 0.1 µg/mL (≈ 0.188 µM); in assay [2] (setting [12]) it was 1.56 µg/mL (≈ 2.93 µM); in [3], ≤ 0.025 µg/mL; in [4] (setting [13]), 1.56 µg/mL (≈ 2.93 µM); in assay [5] (setting [14]), 0.78 µg/mL (≈ 1.46 µM); in [6] (setting [15]), 6.25 µg/mL (≈ 11.7 µM). Further, the MIC in the assay with Escherichia coli No. 29 is 0.05 µg/mL (≈ 0.0939 µM); in [7] (setting [16]), 12.5 µg/mL (≈ 23.5 µM); in assay [8] (setting [17]), 1.56 µg/mL (≈ 2.93 µM); in the assay on Escherichia coli 255, 0.1 µg/mL (≈ 0.188 µM); in the assay on Proteus vulgaris 76 (setting [18]), ≤ 0.025 µg/mL; in [9] (setting [19]), ≤ 0.025 µg/mL. Moreover, the MIC in assay [10] (setting [20]) turned out to be 0.05 µg/mL (≈ 0.0939 µM).
Turning to `CO/N=C(\C(=O)N[C@@H]1C(=O)N2C(C(=O)O)=C(/C=C\c3cc(=O)c(O)cn3OC)CS[C@H]12)c1csc(N)n1` [Example 10], the MIC in [1] (setting [11]) was determined as 1.56 µg/mL (≈ 2.84 µM); in assay [2] (setting [12]), 0.78 µg/mL (≈ 1.42 µM); in assay [3], 12.5 µg/mL (≈ 22.8 µM); in [4] (setting [13]), 0.78 µg/mL (≈ 1.42 µM); in assay [5] (setting [14]) it was 0.78 µg/mL (≈ 1.42 µM); in assay [6] (setting [15]), 12.5 µg/mL (≈ 22.8 µM). Besides, the MIC against Escherichia coli No. 29 came out at 0.2 µg/mL (≈ 0.365 µM); in assay [7] (setting [16]) it was 12.5 µg/mL (≈ 22.8 µM); in [8] (setting [17]), 25 µg/mL (≈ 45.6 µM); against Escherichia coli 255, 0.2 µg/mL (≈ 0.365 µM); in the assay on Proteus vulgaris 76 (setting [18]) it was 0.1 µg/mL (≈ 0.182 µM); in assay [9] (setting [19]) it was 0.2 µg/mL (≈ 0.365 µM). The MIC in assay [10] (setting [20]) was 0.2 µg/mL (≈ 0.365 µM).
As to `Cn1cc(O)c(=O)cc1/C=C/C1=C(C(=O)O)N2C(=O)[C@@H](NC(=O)/C(=N\OC(C)(C)C(=O)O)c3csc(N)n3)[C@H]2SC1` [Example 12, (6R,7R)-7-[(Z)-2-(2-aminothiazol-4-y1)-2-(1-methyl-1carboxy)ethoxyiminoacetamido]-3-[2-(5-hydroxy-1-methyl-4-pyridon-2-yl)vinyl]-ceph-3-em-4-carboxylic acid, trans-isomer], the MIC in assay [1] (setting [11]) was 0.2 µg/mL (≈ 0.331 µM); in assay [2] (setting [12]), ≤ 0.025 µg/mL; in assay [3] it was ≤ 0.025 µg/mL; in assay [4] (setting [13]) it was 0.05 µg/mL (≈ 0.0827 µM); in assay [5] (setting [14]), 12.5 µg/mL (≈ 20.7 µM); in [6] (setting [15]) it was 100 µg/mL (≈ 165 µM). In addition, the MIC with Escherichia coli No. 29 is 0.1 µg/mL (≈ 0.165 µM); in assay [7] (setting [16]), 0.2 µg/mL (≈ 0.331 µM); in [8] (setting [17]), 3.13 µg/mL (≈ 5.18 µM); in the assay on Escherichia coli 255, 0.05 µg/mL (≈ 0.0827 µM); in the assay on Proteus vulgaris 76 (setting [18]), ≤ 0.025 µg/mL; in [9] (setting [19]), 0.1 µg/mL (≈ 0.165 µM). For the same compound, in [10] (setting [20]), the MIC was determined as 0.05 µg/mL (≈ 0.0827 µM).
Consider `CC(C)(O/N=C(\C(=O)N[C@@H]1C(=O)N2C(C(=O)O)=C(/C=C/c3cc(=O)c(O)cn3Cc3ccncc3)CS[C@H]12)c1csc(N)n1)C(=O)O` [Example 21, (6R,7R)-7-[(Z)-2-aminothiazol-4-y1)-2-(1-methyl-1-carboxy)ethoxyiminoacetamido]-3-[2-(5-hydroxy-1-(4-pyridyl)methyl-4-pyridon-2-y1)vinyl]-ceph-3-em-4carboxylic acid, trans-isomer], for which the MIC in assay [1] (setting [11]) is 1.56 µg/mL (≈ 2.29 µM); in assay [2] (setting [12]), ≤ 0.025 µg/mL; in assay [3], ≤ 0.025 µg/mL; in assay [4] (setting [13]), 0.05 µg/mL (≈ 0.0733 µM); in assay [5] (setting [14]) it was 12.5 µg/mL (≈ 18.3 µM); in [6] (setting [15]), 100 µg/mL (≈ 147 µM). Besides, the MIC against Escherichia coli No. 29 was 0.1 µg/mL (≈ 0.147 µM); in [7] (setting [16]), 0.2 µg/mL (≈ 0.293 µM); in assay [8] (setting [17]), 6.25 µg/mL (≈ 9.17 µM); against Escherichia coli 255 it was 0.1 µg/mL (≈ 0.147 µM); in the assay with Proteus vulgaris 76 (setting [18]) it was 0.05 µg/mL (≈ 0.0733 µM); in assay [9] (setting [19]), 0.1 µg/mL (≈ 0.147 µM). Moreover, in assay [10] (setting [20]), the MIC was 0.1 µg/mL (≈ 0.147 µM).
